From patent EP0764149B1, “NOVEL FARNESYL TRANSFERASE INHIBITORS, THEIR PREPARATION AND PHARMACEUTICAL COMPOSITIONS CONTAINING SAME” (RHONE-POULENC RORER S.A., priority 1994, dated 1995) come the findings set out here.

Like-named read-outs stand apart in the source and are kept apart here.

Assay [1] addresses T1, farnésyltransférase humaine (Homo sapiens, UniProt P49354+P49356).
T1 construct: farnésyltransférase humaine purifiée à partir de cultures de cellules THP1; endogenous in cells; host or cells: THP1 cell cultures (enzyme purified from them)
Description: Farnesyltransferase inhibition: transfer of (3H) farnesyl from (3H) FPP to p21 H-Ras. It is filed as biochemical. The settings on record: read-out: Activité inhibitrice IC50. The procedure: L'activité farnésyltransférase est déterminée par la quantité de (^3H) farnésyl transférée à partir du (^3H) farnésylpyrophosphate [(^3H) FPP) sur la protéine p21 H-Ras. Le mélange réactionnel standard est composé, pour un volume final de 60 µl, de Tris-HCl 50mM, MgCl2 5mM, dithiotréitol 5 mM, octyl-β-D-glucopyranoside 0,2 %, p21 H-ras 200 picomoles, (^3H) FPP (à 61000 dpm/picomole) 4,5 picomoles.
La réaction est initiée par addition d'environ 5 ng de farnésyltransférase humaine purifiée à partir de cultures de cellules THP1. Après incubation pendant 20 minutes à 37°C en plaque de microtitration contenant 96 trous de 1 cm3 par plaque (Titer Plate®, Beckman), la réaction est stoppée par addition de 0,4 cm3 de SDS à 0,1 % dans le méthanol à 0°C. Le mélange est ensuite additionné de 0,4 cm3 d'acide trichloroacétique (TCA) à 30 % dans le méthanol. Les plaques sont laissées pendant 1 heure dans la glace. Le contenu précipité est alors retenu sur membrane en fibre de verre Filtermat®, Pharmacia) avec l'unité de filtration (Combi Cell Harvester®, Skatron) et rincé avec de l'acide trichloroacétique à 6 % dans l'eau distillée. Les membranes sont séchées au four à micro-ondes puis imprégnées de scintillant par fusion sous air chaud de Meltilex® (Pharmacia) et enfin comptées en cpm dans un compteur β-Plate® (LKB). Chaque essai est répété 3 fois.
L'unité d'activité est définie par 1 picomole de (^3H) FPP transférée sur p21 H-Ras en 20 minutes.
Les pourcentages d'inhibition sont obtenus par comparaison des essais avec et sans inhibiteur après déduction des blancs, les IC50 étant mesurées à partir des inhibitions obtenues avec 9 concentrations différentes en utilisant les logiciels Enzfitter® ou Grafit®.

The subject of assay [2] is farnésylation de la protéine Ras. Briefly: Inhibition of Ras protein farnesylation in THAC cells (Triton X114 extraction, Western blot). Particulars: 24 h culture, read-out: % d'inhibition sur cellules (THAC). It is filed as cell-based. The text has this:
La lignée cellulaire est la lignée THAC (cellules CCL 39 transfectées par Ha-Ras activé) selon K. Seuwen et coll., EMBO J., 7(1) 161-168 (1988). Les cellules sont ensemencées dans des boîtes de Petri de 6 cm de diamètre contenant un milieu DMEM, sérum de veau foetal 5 %, G418 1 %.
Après 24 heures de culture, le milieu de culture est changé (avec ou sans sérum) et le produit à étudier est ajouté en solution dans le diméthylformamide (DMF), en présence ou en absence de DTT (concentrations finales de 0,5 % en DMF et 0,1mM en DTT). Après 24 heures de culture à 37°C, les cellules sont lysées dans 1 cm3 de tampon de lyse (Tris, HCI 20mM, Triton X114 1 %, MgCl2 5 mM, DIT 7 mM, NaCl 150 mM, pH = 7,4). Les lysats sont clarifiés par centrifugation à 4.000 tours/minute pendant 10 minutes. L'extraction par le Triton X114 permet de séparer la protéine Ras farnésylée de la protéine Ras non farnésylée [C. BORDIER, J. Biol. Chem., 256 (4), 1604-1607 (1981)]. La protéine Ras farnésylée qui est plus hydrophobe se trouve dans la phase détergente tandis que la protéine Ras non farnésylée est dans la phase aqueuse. Les échantillons sont dénaturés par chauffage à 95°C dans du tampon de dénaturation pour électrophorèse et déposées sur un gel de polyacrylamide à 14 %. Lorsque le colorant atteint le bas du gel, les protéines du gel sont transférées sur une membrane PVDF. […]
For orientation: Immunoblotting shows a protein as a band on a membrane.

For orientation: IC50 means the concentration needed to halve the response being measured. By inhibition is commonly meant the percentage by which the read-out fell short of the control.

For the compound `CSCC[C@H](NC(=O)c1cccc2c(NC[C@@H](N)CS)cccc12)C(=O)O` [Exemple 3, N-[5-(2(R)-amino-3-mercapto-propylamino)-naphthyl-1-carbonyl]-L-méthionine], the IC50 in assay [1] (unit inferred) came out at 5.6 nM.

On to `CSCC[C@H](NC(=O)c1cccc2c(NC(=O)[C@@H](N)CS)cccc12)C(=O)O` [Exemple 1, N-[5-(2(R)-amino-3-mercapto-propionylamino)-naphthyl-1-carbonyl}-L-méthionine], for which the IC50 in assay [1] (unit inferred) stood at 48 nM.

For `COC(=O)[C@H](CCSC)NC(=O)c1cccc2cc(NC[C@@H](N)CS)ccc12` [Exemple 20, ester méthyliquede la N-[6-(2(R)-amino-3-mercapto-propylamino)-naphtyl-1-carbonyl]-L-méthionine], in assay [2] (à 10 µM), the inhibition at 10 µM stood at 50%. In addition, the half-inhibitory concentration (IC50) in assay [1] (unit inferred) was found to be 80 nM.

Turning to `CCCC[C@H](NC(=O)c1cccc2c(NC[C@@H](N)CS)cccc12)C(=O)O` [Exemple 5, N-[5-(2(R)-amino-3-mercapto-propylamino)-naphthyl-1 carbonyl]-L-norleucine], the IC50 in assay [1] (unit inferred) was 69 nM.

Regarding `CSCC[C@H](NC(=O)c1cccc2cc(NC[C@@H](N)CS)ccc12)C(=O)O` [Exemple 19, N-[6-(2(R)-amino-3-mercapto-propylamino)-naphtyl-1-carbonyl]-L-méthionine], the inhibition at 50 µM in assay [2] (à 50 µM) was 31%. Besides, the concentration for half-maximal inhibition (IC50) in assay [1] (unit inferred) came to 1.8 nM.

Consider `CSCC[C@H](NC(=O)c1cccc2c(NC[C@@H](N)CS)cccc12)C(=O)OCc1ccccc1` [Exemple 8, ester benzyliquede la N-[5-(2(R)-amino-3-mercapto-propylamino)-naphtyl-1-carbonyl]-L-méthionine], for which the IC50 in assay [1] (unit inferred) amounted to 100 nM.

In the case of `CSCC[C@H](NC(=O)c1cccc2c(NC[C@@H](N)CS)cccc12)C(=O)OCCS(=O)(=O)c1ccccc1` [Exemple 10], in assay [1] (unit inferred), the IC50 came out at 21 nM.

As for `COCCOCCOC(=O)[C@H](CCSC)NC(=O)c1cccc2c(NC[C@@H](N)CS)cccc12` [Exemple 9, ester 2-(2-méthoxyéthoxy) éthyliquede la N-[5-(2(R)-amino-3-mercapto-propylamino)-naphtyl-1-carbonyl]-L-méthionine], in assay [1] (unit inferred), the IC50 is 70 nM.

For the compound `CS(=O)(=O)CC[C@H](NC(=O)c1cccc2cc(NC[C@@H](N)CS)ccc12)C(=O)O` [Exemple 21, acide 2(S)-[6-(2(R)-amino-3-mercapto-propylamino)-1-naphtoylamino]-4-méthylsulfonyl-butanoïque], the IC50 in assay [1] was 4 nM.
